Measurements published in paper PMC10391610, “Survivin prevents the polycomb repressor complex 2 from methylating histone 3 lysine 27” (iScience, 2023).

How the values were obtained:
survivin = biological target: T1, survivin (Homo sapiens, UniProt O15392); assay: PEPperCHIP peptide microarray, survivin interaction; type: binding; conditions: 1 μg/mL survivin; for Average FI (%): anti-His tag DyLight680 read-out, percentage of maximum fluorescence intensity units (64193) per peptide; for Average FI (%) / Integrated FI: 15-mer microarray peptides covering the residues; for Integrated FI: in units of the maximum FI per peptide; for survivin interaction / fluorescence on microarray (in words): peptide microarray
T1 construct: transferred to the survivin1-142 construct used in the present study; His8 tag (pHIS8 vector, thrombin-cleavable); made in house; host or cells: E. coli BL21(DE3) star
T1 sequence (O15392 whole entry): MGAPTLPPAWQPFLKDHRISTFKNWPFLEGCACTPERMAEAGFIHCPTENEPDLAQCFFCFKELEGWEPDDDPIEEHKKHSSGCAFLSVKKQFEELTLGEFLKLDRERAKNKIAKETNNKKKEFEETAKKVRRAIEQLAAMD
Description: We were looking for potential direct interactions between survivin and short peptide sequences originating from PRC2 subunits and other proteins involved in histone modifications based on the in vivo results. Therefore, we created a peptide microarray of overlapping peptides obtained from EZH2, EED, SUZ12, and JARID2 to investigate how survivin interacts with the activity of the PRC2 complex. These subunits form the core of PRC2, and the interaction of survivin with the PRC2 molecular scaffold indicates a potentially disruptive role for survivin in PRC2 function. The fluorescence signal generated by labeled survivin is compared in Figure 2 as a function of position along the polypeptide chain of PRC2 subunits. Figure S1 depicts the raw fluorescence images. Moreover, the microarray fluorescence intensities projected on the three-dimensional structure of the PRC2 core complex are shown in Figure 3. The whole dataset is deposited at the Zenodo data base.
The location of survivin on the peptide microarray was clearly correlated with the amino acid content of the peptide at 1 μg/mL survivin concentration. When evaluating how accurate the predictions were, one should keep in mind that the primary and higher-order structures of the peptide were not at all considered in this analysis. Mislabeling peptides is possible for multiple reasons. The smallest fluorescence signal was chosen as the limit of detection and photon-counting errors may cause weak interactions to be undetected at low fluorescence intensities. Moreover, if the fluorescence intensity of experimental duplicates varied by more than 40%, a peptide was classified as non-interacting even if the lack of reproducibility is ambiguous evidence for the lack of interaction. […] Reducing the number of hidden layer perceptrons from 100 (the default value) to 9 had no effect on the classifier’s performance. Even a 15 amino acid peptide segment composition gives a high degree of uniqueness and highly scalable intensity for survivin-peptide interaction. Survivin has a non-globular structure with no deep binding pockets.
A peptide microarray was designed using the protein sequences from: Cdk1 (P06493), KAT2A/GCN5 (Q92830), SPI1/PU1 (P17947), SUZ12 (Q15022), EED (O75530), JADE3 (Q92613), DIABLO/SMAC (Q9NR28), BOREALIN (Q53HL2), INCENP (Q9NQS7), SGOL1 (Q5FBB7), SGOL2 (Q562F6), EZH2 (Q15910), JARID2 (Q92833), Histone H3 (P68431), AURORAKB (Q96GD4), JADE1 (Q6IE81), JTB (O76095), EVI5 (O60447), RAN (P62826), USP9X (Q93008), C-IAP1 (Q13490), STAT3 (P40763), BRUCE/APOLLON (Q9NR09), XPO1 (O14980), CDX2 (Q99626), Msx2 (P35548), RBM15 (Q96T37), PHF21A (Q96BD5), PHF8 (Q9UPP1), DIDO (Q9BTC0), JADE2 (Q9NQC1) and HASPIN (Q8TF76). The Uniprot ID is shown in parenthesis. The protein sequences were divided into 15 amino acid long peptides with a 10 amino acid overlap. To investigate background interactions with the protein-derived peptides that could interfere with the main assays, one of the PEPperCHIP Peptide Microarrays (PEPperPRINT Gmbh) was pre-staining with the secondary 6x His Tag Antibody DyLight680 antibody at a dilution of 1:1000 and with the monoclonal anti-HA (12CA5)-DyLight800 control antibody at a dilution of 1:1000. Subsequent incubation of other peptide microarray copies with survivin at a concentration of 1 μg/ml in incubation buffer was followed by staining with the secondary 6x His Tag Antibody DyLight680 antibody (Rockland Immunochemicals, Pottstown, PA, USA) and the monoclonal anti-HA (12CA5)-DyLight800 control antibody (Rockland Immunochemicals, Pottstown, PA, USA). The read-out was performed by scanning intensities of 7/7 (red/green). As an internal quality control, HA and His tag control peptides were stained simultaneously to confirm assay quality and to facilitate grid alignment for data quantification. The LI-COR Odyssey Imaging System was used for read-out, and the PepSlide Analyzer was used for quantification of spot intensities and peptide annotation. […]

[U-15N]-survivin = biological target: T2, [U-15N]-survivin (Homo sapiens, UniProt O15392); assay: NMR titration of [U-15N]-survivin with PRC2-derived peptides; type: binding; conditions: for NMR cpc (critical peptide concentration): 300 μM [U-15N]-survivin, 50 mM Tris, 150 mM NaCl, 1 mM DTT, pH 7.5, 298 K, Bayesian logistic fit (Table 3); for <L>: logistic function parameter L; for <L> / <b> / <k>: posterior mean (Table S10); for <b>: logistic function parameter b; for <k>: logistic function parameter k
T2 construct: transferred to the survivin1-142 construct used in the present study; His8 tag (pHIS8 vector, thrombin-cleavable); made in house; host or cells: E. coli BL21(DE3) star, M9 medium with 15NH4Cl
T2 sequence (O15392 whole entry): as above
Protocol: Uniformly [U] labeled [U-^15N] survivin was produced in H2O-based M9 medium[69] containing ^15NH4Cl as the sole nitrogen and in case of or [U-^15N,^13C] survivin D-(^13C)-glucose was additionally added as the sole carbon source, respectively (Sigma-Aldrich). Expression was induced with 0.5 mM IPTG and continued for 20–22 h at 15°C. Cell harvesting and subsequent purification followed the same protocol as for unlabeled survivin.
NMR measurements were performed on Bruker (Fällanden, Switzerland) AvanceIII 800 MHz spectrometers running Topspin 3.5 or 3.6, respectively, equipped with cryogenically cooled triple resonance probes. All NMR experiments were performed in NMR buffer (50 mM Tris, 150 mM NaCl, 1 mM DTT, pH 7.5) and at 298 K. The sequence-specific backbone assignment of survivin1-117 was taken from previously published assignment,[50] and transferred to the survivin1-142 construct used in the present study. Existing resonance assignments were confirmed, and additional resonances were assigned in a sequence-specific manner by the following experiments: [^1H,^15N]-TROSY HSQC,[70] BEST-TROSY-type HNCA and HNCO experiments.[71]
The peptides were synthetized and purified to 95% by Biomatik. The peptides were titrated into ^15N labelled survivin (0.3 mM). Standard 2D [^15N,^1H]-SOFAST-HMQC[72] experiments were recorded with inter-scan delays of 200 ms and 1025 x 256 complex points for the ^1H and ^15N dimensions, respectively, for the titrations of the different peptides with [U-^15N] survivin.
For the global analysis, the NMR signal strength was quantified by summing the 200 highest values in each 2D NMR spectrum to ensure that all peaks corresponding to the different amino acid residues in survivin are potentially covered. The titration curve was modelled using a Bayesian machine learning approach using the python library pymc3.[66] The logistic function was chosen due to computational convenience. The most important parameter of this function was coined “critical peptide concentration (cpc)” and its logarithm was modelled using a uniform a priori distribution between −10 and 1. p(log10cpc|lower=−10,upper=1)=1/upper−lower
The modelling errors related to the choice of function affect the analysis of different peptides similarly. Therefore, the relative magnitude of cpc in comparison is more reliable than the absolute magnitude of cpc itself. The concentration values were converted to dimensionless quantities by dividing with 1 mM and the NMR signal intensity was normalized for the concentration range studied.
A deterministic sigmoid (logistic) function was used to model signal decay as a function of peptide concentration. Additional a priori assumptions of the function parameters were the following: p(k|lower=−10,upper=10)=1/upper−lower p(L|lower=−3,upper=3)=1/upper−lower p(b|lower=−10,upper=10)=1/upper−lower
1000 posterior samples were collected in four parallel chains using the No-U-Turn sampling algorithm (NUTS) after 2000 tuning steps/chain.[83] The default sampling parameters were used except for “target accept” parameter, which was increased to 0.95. For the final analysis the 1000 samples from the four chains were merged to yield 4000 samples.

| Sequence | Average FI (%) (survivin) | Integrated FI (survivin) | survivin interaction / fluorescence on microarray (in words) (survivin) | NMR cpc (critical peptide concentration) ([U-15N]-survivin) [µM] | <L> ([U-15N]-survivin) | <b> ([U-15N]-survivin) | <k> ([U-15N]-survivin) |
| --- | --- | --- | --- | --- | --- | --- | --- |
| PNSMVYFGSSQDEEEVEEEDDETED [JARID2_170-194, PRC2-derived peptide, JARID2 residues 170–194, synthesized by Biomatik] | 100 | 3.00 | high survivin-associated fluorescence intensity | 0.0085 | -0.53 | 0.79 | 1.25 |
| PLRPQEMEVDSEDEKDPEWLREKTI [SUZ12_573-597, PRC2-derived peptide, SUZ12 residues 573–597, synthesized by Biomatik] | 20 | 0.6 | high survivin-associated fluorescence intensity | 0.0066 | -0.59 | 0.87 | 0.99 |
| SQGEIRLLQSYVDADADENFYTCAW [EED128-152, PRC2-derived peptide, EED residues 128–152, synthesized by Biomatik] | 10 | 0.31 | high survivin-associated fluorescence intensity | 0.0076 | -0.00 | 0.51 | -0.01 |
